# Data taken from patent US10669266B2, “Oxadiazole inhibitors of HIPK2 for treating kidney fibrosis” (ICAHN SCHOOL OF MEDICINE AT MOUNT SINAI, priority 2017, dated 2020).
# Test system: Smad3-responsive luciferase reporter (SBE4-Luc)
# Method: Human primary tubular cells (PromoCell GmbH, Heidelberg, Germany) were cultured in Renal Epithelial Cell Growth Medium-2 (Promocell GmbH) with supplements according to manufacturer's protocol human primary renal tubular epithelial cells with <5 passages were used for all studies. For HIV infection of hRTECs, pNL4-3:ΔG/P-EGFP, a gag/poi-deleted HIV-1 construct that contains EGFP in the gag open reading frame, and pHR-IRES-EGFP, a control EGFP construct, were used to generate the VSV-G pseudotyped virus. Cells were infected with HIV pseudotyped virus or control virus for 2 days before the treatment with test compound.
# Renilla luciferase reporter plasmid (pRL) was purchased from Promega.
# Forty-eight hours post-transfection cells were treated with assigned concentrations of test compound together with or without 10 ng/ml TGF-β1 for 16 hours. Luciferase activities were measured using the Dual-Luciferase Reporter Assay kit (Promega, #E1910). Data are expressed as the ratio of firefly luciferase activity over Renilla luciferase activity. […] 48 hours after transfection, luciferase activities were measured.
row,SMILES,Luciferase Activity (Relative to DMSO control) −TGFβ
1,CCOC(=O)c1ccc(-c2noc(-c3cnc4cc(Cl)ccc4c3)n2)cc1 [Example 2],0.660
2,"CCOC(=O)c1ccc(-c2noc(-c3cnc4cc(B5OC(C)(C)C(C)(C)O5)ccc4c3)n2)cc1 [Example 8, ethyl 4-(5-(7-(4,4,5,5-tetramethyl-1,3,2-dioxaborolan-2-yl)quinolin-3-yl)-1,2,4-oxadiazol-3-yl)benzoate]",0.818
3,"COc1ccc2cc(-c3nc(-c4ccc(B5OC(C)(C)C(C)(C)O5)cc4)no3)cnc2c1 [Example 3, 5-(7-methoxyquinolin-3-yl)-3-(4-(4,4,5,5-tetramethyl-1,3,2-dioxaborolan-2-yl)phenyl)-1,2,4-oxadiazole]",0.730
4,COc1ccc2cc(-c3nc(-c4ccc([B-](F)(F)F)cc4)no3)cnc2c1 [Example 4],0.366
5,"CC1(C)OB(c2ccc3cc(-c4nc(-c5ccc(C(=O)O)cc5)no4)cnc3c2)OC1(C)C [Example 6, 4-(5-(7-(4,4,5,5-tetramethyl-1,3,2-dioxaborolan-2-yl)quinolin-3-yl)-1,2,4-oxadiazol-3-yl)benzoic acid]",0.722
6,COc1ccc2cc(-c3nc(-c4cccc(Br)n4)no3)cnc2c1 [Example 7],0.784
7,"CCOC(=O)c1ccc(-c2noc(-c3cnc4cc(Br)ccc4c3)n2)cc1 [Example 5, ethyl 4-(5-(7-bromoquinolin-3-yl)-1,2,4-oxadiazol-3-yl)benzoate]",0.512
